Results as given in patent US10077436B2, “Beta-glucosidase enzymes for increased biomass saccharification” (Edeniq, Inc., priority 2013, dated 2018).

Experiments:
Assay type in all cases: biochemical
[1] = tested on: A-BG (Accellerase® BG from DuPont), commercial beta-glucosidase; assay: BG kinetics, cellobiose hydrolysis assay (HPLC) with glucose as competitive inhibitor, A-BG; conditions: cellobiose substrate, pH 4.8, 50° C.
Excerpt: (§1) The kinetic properties of beta glucosidase are important for cellulosic hydrolysis, since in commercial situations a wide range of substrate concentrations and different product inhibition conditions will be encountered. In this example, a Michaelis-Menten kinetics model was used to describe BG kinetics.
(§2) BG activity assay using cellobiose is the other standard assay to measure BG or cellobiase activity, which utilizes hydrolysis of cellobiose by cellobiase into two molecules of glucose, the last step of enzymatic hydrolysis of cellulose. One cellobiase unit (commonly termed as CBU) is defined as the amount of enzyme that converts […] of cellobiose or produces 2 μmol of glucose per min. Briefly, to determine BG activity, 25 μL of diluted enzyme in 50 mM citrate buffer (pH 4.8) equilibrated to 50° C. was mixed with 25 μL cellobiose (or cellobiose/glucose mixture for the kinetic study) to start the reaction. The mixture was incubated at 50° C. for 10 min, and the reaction was terminated by incubating the mixture at 99° C. for 5 min. Different methods are available to measure the glucose produced in the assays. For the kinetic study, HPLC was used.
To determine kinetic properties using cellobiose substrate, duplicate assays with cellobiose concentrations ranging from 0.47 to 15 mM and glucose concentrations of 0, 0.9, 4.5, 6.75, and 8.1 (for A-BG) or 9 (for all the other three BGs) g/L were performed. As for pNPG substrate, the range of cellobiose substrate concentration was chosen to show detectable activity at the lowest substrate concentration and saturation stage at high substrate concentration. […] Moreover, theoretically there are two ways to measure BG activity by HPLC when cellobiose is used as the substrate: tracking consumption of cellobiose or tracking production of glucose. […] In Table 3, A % is defined as follows and is an indicator of measurement sensitivity, since the difference of substrate or product concentrations before and after reaction was used to determine BG activity. Δ%=(start conc. of cellobiose−end conc. of cellobiose)/start conc. of cellobiose×100% (3) Δ%=(end conc. of glucose−start conc. of glucose)/start conc. of glucose×100% (4)
A similar simultaneous nonlinear regression method based on the competitive inhibition equation expressed in Equation (1) was used to determine kinetic parameters of BG towards cellobiose.
The specific activity used here was determined by the initial velocity approach that is required by implementing Michaelis-Menten model (Copeland, 2000). The specific activity was determined by measuring consumption of cellobiose in the first 10 min of reaction and was expressed as μmol min^−1 mg^−1, where mg^−1 means per mg of total protein. The relative activity was determined based on the maximum activity obtained in the absence of initial glucose inhibition.
(§3) The above experimental data were fit in the competitive inhibition model as expressed in Equation (1) by simultaneous nonlinear regression.

[2] = tested on: S-BG (Novozymes SP188 from Sigma), commercial beta-glucosidase; assay: BG kinetics, cellobiose hydrolysis assay (HPLC) with glucose as competitive inhibitor, S-BG; conditions: cellobiose substrate, pH 4.8, 50° C.
Excerpt: (§4) The kinetic properties of beta glucosidase are important for cellulosic hydrolysis, since in commercial situations a wide range of substrate concentrations and different product inhibition conditions will be encountered. In this example, a Michaelis-Menten kinetics model was used to describe BG kinetics. To determine these kinetic properties, BG activity assays using standard substrates pNPG and cellobiose were employed. yEdQ745-BG (wild type) and yEdQ885-BG (improved), were compared with two commercial BGs, A-BG (Accellerase®) BG from Dupont) and S-BG (Novozymes SP188 from Sigma).
as §2
To determine kinetic properties using cellobiose substrate, duplicate assays with cellobiose concentrations ranging from 0.47 to 15 mM and glucose concentrations of 0, 0.9, 4.5, 6.75, and 8.1 (for A-BG) or 9 (for all the other three BGs) g/L were performed. As for pNPG substrate, the range of cellobiose substrate concentration was chosen to show detectable activity at the lowest substrate concentration and saturation stage at high substrate concentration. However, in contrast to the pNPG substrate, when there was still some activity left at glucose concentration up to 36 g/L, most of the BG activity was lost at an inhibitor level of 9 g/L when cellobiose substrate was used. […] It should also be noted that colorimetric glucose assay cannot provide activity results for inhibitory glucose levels above 0.9 g/L after several trials. Therefore, HPLC measurements were used for kinetic studies using cellobiose substrate. It should be pointed out that the HPLC method may not be sensitive enough either to capture BG activity under more severe glucose inhibition conditions than 9 g/L of glucose. Moreover, theoretically there are two ways to measure BG activity by HPLC when cellobiose is used as the substrate: tracking consumption of cellobiose or tracking production of glucose. However, as shown by the example of one set of results from S-BG in Table 3, tracking glucose is problematic due to measurement sensitivity. In Table 3, A % is defined as follows and is an indicator of measurement sensitivity, since the difference of substrate or product concentrations before and after reaction was used to determine BG activity. Δ%=(start conc. of cellobiose−end conc. of cellobiose)/start conc. of cellobiose×100% (3) Δ%=(end conc. of glucose−start conc. of glucose)/start conc. of glucose×100% (4)
With increasing inhibitor (glucose) level, Δ% is decreasing. For the case of tracking glucose, Δ% was too small to be reliable when 4.5 g/L of glucose was added at the beginning. […] Thus, the approach of tracking cellobiose was chosen due to its higher detection sensitivity. In the substrate range used to determine kinetic parameters (0.47 to 30 mM for A-BG and 0.47 to 15 mM for the other three BGs), the detection sensitivity is reasonable.
A similar simultaneous nonlinear regression method based on the competitive inhibition equation expressed in Equation (1) was used to determine kinetic parameters of BG towards cellobiose. […]

[3] = tested on: S-BG (Novozymes SP188 from Sigma), commercial beta-glucosidase; assay: BG kinetics, pNPG hydrolysis assay with glucose as competitive inhibitor, S-BG; conditions: pNPG substrate, pH 5.0, 50° C.
Excerpt: as §4
(§5) BG activity assay using pNPG is one of the two commonly used standard assays to measure BG activity, which utilizes hydrolysis of p-nitrophenyl-β-D-glucopyranoside (pNPG) by BG into a yellow colored product, p-nitrophenol (pNP), that has a strong absorbance at 405 nm. One pNPG unit is defined as the amount of enzyme that produces 1 μmol of pNP per min. Briefly, to determine BG activity, 25 μL of diluted enzyme in 200 mM sodium acetate buffer (pH 5.0) was mixed with 25 μL of the same buffer and 25 μL of RO water (or glucose solution for the kinetic study) and the mixture was preincubated at 50° C. for 5 min. The reaction was initiated by adding 25 μL of 10 mM pNPG in 200 mM sodium acetate buffer (pH 5.0) and the mixture was incubated at 50° C. for 10 min. The reaction was then terminated by adding 100 μL of 0.25 M sodium carbonate, and the amount of pNP produced was determined by measuring absorbance at 405 nm using a predetermined calibration curve.
The range of substrate concentration was chosen to show detectable activity at the lowest concentration and saturation stage at high substrate concentration. The upper limit of inhibitor (glucose) level was chosen to get as close as possible to the real conditions during saccharification (˜4% w/v glucose) and have a detectable residual activity.
(§6) To determine the kinetic properties, a competitive inhibition mechanism was hypothesized as proposed in the literature (Chauve et al, 2010; Krogh et al, 2010). The Michaelis-Menten equation with the competitive inhibition term can be expressed in Equation (1), where [S] is the substrate concentration (mM), [I] is the inhibitor concentration (mM), V is the rate of product formation (mM/min), Vmax is the maximal rate of product formation (mM/min), Km is the Michaelis-Menten constant and Ki is the inhibition constant. The turnover number, Kcat, can be calculated by Equation (2), where [Et] is the total amount of enzyme.
(§7) Conventionally, linearization methods can be used to determine the kinetic parameters based on Equation (1). Three common linear plots used are Lineweaver-Burke, Eadie-Hofstee and Hanes plots (Rogers and Gibon, 2009). However, these linearized versions of the Michaelis-Menten equation often produce substantial errors in parameter estimation. […] All of the activity data at different substrate levels and different inhibitor levels were fit simultaneously according to the full nonlinear equation for competitive enzyme inhibition as expressed in Equation (1). Thus, Vmax, Km and Ki can be determined simultaneously from this fitting process, and Km/Ki can then be calculated. Kcat can be obtained by Equation (2) and Kcat/Km can be calculated accordingly.
The above experimental data were fit in the competitive inhibition model as expressed in Equation (1) by simultaneous nonlinear regression. The order of maximum velocity (Vmax) is A-BG>yEdQ885-BG>S-BG≈yEdQ745-BG. […] Nevertheless, the in-house BGs have much higher dissociation constant for inhibitor (Ki), indicating higher tolerance to product inhibition. Consistent with Vmax, the order of turnover number (Kcat) is A-BG>yEdQ885-BG>S-BG≈yEdQ745-BG. With much lower Km and much higher Kcat, A-BG has a considerably higher catalytic efficiency (Kcat/Km) than the other enzymes. The catalytic efficiency of S-BG and yEdQ885-BG is quite close, which is higher than that of yEdQ745-BG. […]

[4] = tested on: A-BG (Accellerase® BG from DuPont), commercial beta-glucosidase; assay: BG kinetics, pNPG hydrolysis assay with glucose as competitive inhibitor, A-BG; conditions: pNPG substrate, pH 5.0, 50° C.
Description: as §1
as §5, with “One” for “BG activity assay using pNPG is one of the two commonly used standard assays to measure BG activity, which utilizes hydrolysis of p-nitrophenyl-β-D-glucopyranoside (pNPG) by BG into a yellow colored product, p-nitrophenol (pNP), that has a strong absorbance at 405 nm. One”
The range of substrate concentration was chosen to show detectable activity at the lowest concentration and saturation stage at high substrate concentration.
as §6, §7, §3

Row | SMILES | Kcat [1] | Kcat/Km [1] | Km [1] | Vmax [1] | Kcat [2] | Kcat/Km [2] | Km [2] | Vmax [2] | Kcat [3] | Kcat/Km [3] | Km [3] | Vmax [3] | Kcat [4] | Kcat/Km [4] | Km [4] | Vmax [4]
1 | OC[C@H]1O[C@@H](O[C@H]2[C@H](O)[C@@H](O)C(O)O[C@@H]2CO)[C@H](O)[C@@H](O)[C@@H]1O (stereo partly shown) [cellobiose] | 67.803 s⁻¹ | 10336 M⁻¹ s⁻¹ | 6560 ± 890 µM | 51.89 ± 2.53 units/mg | 15.54 s⁻¹ | 9773.7 M⁻¹ s⁻¹ | 1590 ± 410 µM | 7.77 ± 0.56 units/mg | – | – | – | – | – | – | – | –
2 | O=[N+]([O-])c1ccc(O[C@@H]2O[C@H](CO)[C@@H](O)[C@H](O)[C@H]2O)cc1 [pNPG, p-nitrophenyl-β-D-glucopyranoside] | – | – | – | – | – | – | – | – | 8.4 s⁻¹ | 20000 M⁻¹ s⁻¹ | 420 ± 60 µM | 4.20 ± 0.14 U/mg | 44.9232 s⁻¹ | 453769.7 M⁻¹ s⁻¹ | 99 ± 12 µM | 34.38 ± 0.67 U/mg
